Test system: not given
Experiment: not given
Details: not given

melting point | Compound
252 to 257 °C | COCc1ccc(-c2cn(-c3cc4c(=O)n(NS(C)(=O)=O)c(=O)[nH]c4cc3C(F)(F)F)cn2)cc1 [Example 85, N-{6-[4-(4-Methoxymethyl-phenyl)-imidazol-1-yl]-2,4-dioxo-7-trifluoromethyl-1,4-dihydro-2H-quinazolin-3-yl}-methanesulfonamide]
245 to 260 °C (dec.) | CS(=O)(=O)Nn1c(=O)[nH]c2cc(C(F)(F)F)c(N3CCSCC3)cc2c1=O [Example 74, N-(2,4-Dioxo-6-thiomorpholin-4-yl-7-trifluoromethyl-1,4-dihydro-2H-quinazolin-3-yl)-methanesulfonamide]
240 to 246 °C | CS(=O)(=O)Nn1c(=O)[nH]c2cc(C(F)(F)F)c(NCCO)cc2c1=O [Example 82, N-[6-(2-Hydroxy-ethylamino)-2,4-dioxo-7-trifluoromethyl-1,4-dihydro-2H-quinazolin-3-yl]-methanesulfonamide]
232.4 to 240.2 °C | COC(=O)Nc1cc2c(=O)n(NS(C)(=O)=O)c(=O)[nH]c2cc1C(F)(F)F [Example 101, (3-Methanesulfonylamino-2,4-dioxo-7-trifluoromethyl-1,2,3,4-tetrahydro-quinazolin-6-yl)carbamic acid methyl ester]
225 to 230 °C | CS(=O)(=O)Nn1c(=O)[nH]c2cc(C(F)(F)F)c(-n3cnc(CO)c3)cc2c1=O [Example 93, N-[6-(4-Hydroxymethyl-imidazol-1-yl)-2,4-dioxo-7-trifluoromethyl-1,4-dihydro-2H-quinazolin-3-yl]-methanesulfonamide]
267 to 270 °C | CCOC(=O)c1ncn(-c2cc3c(=O)n(NS(C)(=O)=O)c(=O)[nH]c3cc2C(F)(F)F)n1 [Example 71, 1-(3-Methanesulfonylamino-2,4-dioxo-7-trifluoromethyl-1,2,3,4-tetrahydro-quinazolin-6-yl)-1H-[1,2,4]triazole-3-carboxylic acid ethyl ester]
285 to 301 °C (dec.) | CS(=O)(=O)Nn1c(=O)[nH]c2cc(C(F)(F)F)c(-n3ccnc3)cc2c1=O [Example 73, N-(6-Imidazol-1-yl-2,4-dioxo-7-trifluoromethyl-1,4-dihydro-2H-quinazolin-3-yl)-methanesulfonamide]
292 to 295 °C | CNC(=O)c1cn(-c2cc3c(=O)n(NS(C)(=O)=O)c(=O)[nH]c3cc2C(F)(F)F)cn1 [Example 91, 1-(3-Methanesulfonylamino-2,4-dioxo-7-trifluoromethyl-1,2,3,4-tetrahydro-quinazolin-6-yl)-1H-imidazole-4-carboxylic acid methylamide]
> 280 °C | COc1cc2c(=O)n(NS(C)(=O)=O)c(=O)[nH]c2cc1[N+](=O)[O-] [Example 15, N-(6-Methoxy-7-nitro-2,4-dioxo-1,4-dihydro-2H-quinazolin-3-yl)-methanesulfonamide]
> 300 °C | CS(=O)(=O)Nn1c(=O)[nH]c2cc([N+](=O)[O-])c(-n3cnc(CO)c3)cc2c1=O [Example 2, N-[6-(4-Hydroxymethyl-imidazol-1-yl)-7-nitro-2,4-dioxo-1,4-dihydro-2H-quinazolin-3-yl]-methanesulfonamide]
144 to 147 °C | CS(=O)(=O)Nn1c(=O)[nH]c2cc(C(F)(F)F)c(-n3cnc(C(F)(F)F)c3)cc2c1=O [Example 96, N-[6-(4-Trifluoromethyl-imidazol-1-yl)-2,4-dioxo-7-trifluoromethyl-1,4-dihydro-2H-quinazolin-3-yl]-methanesulfonamide]
238 to 242 °C | CS(=O)(=O)Nn1c(=O)[nH]c2cc(C(F)(F)F)c(N3CCC(=O)CC3)cc2c1=O [Example 78, N-[2,4-Dioxo-6-(4-oxo-piperidin-1-yl)-7-trifluoromethyl-1,4-dihydro-2H-quinazolin-3-yl]-methanesulfonamide]
253 to 262 °C | CS(=O)(=O)Nn1c(=O)[nH]c2cc(C(F)(F)F)c(N3CCC4(CC3)OCCO4)cc2c1=O [Example 77, N-[6-(1,4-Dioxa-8-aza-spiro[4.5]dec-8-yl)-2,4-dioxo-7-trifluoromethyl-1,4-dihydro-2H-quinazolin-3-yl]-methanesulfonamide]
194 to 196 °C | CS(=O)(=O)Nn1c(=O)[nH]c2cc(C(F)(F)F)c(Oc3cccnc3)cc2c1=O [Example 80, N-[2,4-Dioxo-6-(pyridin-3-yloxy)-7-trifluoromethyl-1,4-dihydro-2H-quinazolin-3-yl]-methanesulfonamide]
257 to 260 °C | CNC(=O)c1ncn(-c2cc3c(=O)n(NS(C)(=O)=O)c(=O)[nH]c3cc2C(F)(F)F)n1 [Example 72, 1-(3-Methanesulfonylamino-2,4-dioxo-7-trifluoromethyl-1,2,3,4-tetrahydro-quinazolin-6-yl)-1H-[1,2,4]triazole-3-carboxylic acid methylamide]
287 to 288 °C | COC(=O)c1cn(-c2cc3c(=O)n(NS(C)(=O)=O)c(=O)[nH]c3cc2C(F)(F)F)cn1 [Example 88, 1-(3-methanesulfonylamino-2,4-dioxo-7-trifluoromethyl-1,2,3,4-tetrahydro-quinazolin-6-yl)-1H-imidazole-4-carboxylic acid methyl ester]
249 to 261 °C (dec.) | CS(=O)(=O)Nn1c(=O)[nH]c2cc(C(F)(F)F)c(N3CCC(F)(F)CC3)cc2c1=O [Example 76, N-[6-(4,4-Difluoro-piperidin-1-yl)-2,4-dioxo-7-trifluoromethyl-1,4-dihydro-2H-quinazolin-3-yl]-methanesulfonamide]
284 to 286 °C | CN(C)C(=O)c1cn(-c2cc3c(=O)n(NS(C)(=O)=O)c(=O)[nH]c3cc2C(F)(F)F)cn1 [Example 90, 1-(3-Methanesulfonylamino-2,4-dioxo-7-trifluoromethyl-1,2,3,4-tetrahydro-quinazolin-6-yl)-1H-imidazole-4-carboxylic acid dimethylamide]
110 °C (dec.) | CS(=O)(=O)Nn1c(=O)[nH]c2cc([N+](=O)[O-])c(NCC(O)c3cccs3)cc2c1=O (centres unmarked) [Example 6, N-[6-(2-Hydroxy-2-thiophen-2-yl-ethylamino)-7-nitro-2,4-dioxo-1,4-dihydro-2H-quinazolin-3-yl]-methanesulfonamide]
266 to 283 °C | CS(=O)(=O)Nn1c(=O)[nH]c2cc(C(F)(F)F)c(N3CCC3)cc2c1=O [Example 79, N-(6-Azetidin-1-yl-2,4-dioxo-7-trifluoromethyl-1,4-dihydro-2H-quinazolin-3-yl)-methanesulfonamide]
229 to 233 °C | CS(=O)(=O)Nn1c(=O)[nH]c2cc(C(F)(F)F)c(-n3cnc(Br)c3)cc2c1=O [Example 95, N-[6-(4-Bromo-imidazol-1-yl)-2,4-dioxo-7-trifluoromethyl-1,4-dihydro-2H-quinazolin-3-yl]-methanesulfonamide]
254 to 272 °C | CN(C)c1cc2c(=O)n(NS(C)(=O)=O)c(=O)[nH]c2cc1C(F)(F)F [Example 81, N-(6-Dimethylamino-2,4-dioxo-7-trifluoromethyl-1,4-dihydro-2H-quinazolin-3-yl)-methanesulfonamide]
185 to 195 °C | CCS(=O)(=O)Nn1c(=O)[nH]c2cc(C(F)(F)F)c(-n3cnnc3)cc2c1=O [Example 70, Ethanesulfonic acid (2,4-dioxo-6-[1,2,4]triazol-4-yl-7-trifluoromethyl-1,4-dihydro-2H-quinazolin-3-yl)-amide]
293 to 294 °C | COc1ccc(-c2cn(-c3cc4c(=O)n(NS(C)(=O)=O)c(=O)[nH]c4cc3C(F)(F)F)cn2)cc1 [Example 84, N-{6-[4-(4-Methoxy-phenyl)-imidazol-1-yl]-2,4-dioxo-7-trifluoromethyl-1,4-dihydro-2H-quinazolin-3-yl}-methanesulfonamide]

Test system: patients with diabetic neuropathy
Experiment: Clinical study, chronic pain in patients with diabetic neuropathy
Format: in vivo, human
Details: 2400 mg/day, Maintenance and Follow-up Periods, statistically significant
Protocol: Patients are randomized to receive 2400 mg/day of the compound or placebo in a 1:1 ratio.
The study consists of a Pre-randomization Phase (1 week) and a Double-blind Phase (5 weeks). The double-blind Phase consists of three periods: a one week Titration Period, a three-week Maintenance Period and a one-week Follow-up Period.
During the 1-week Pre-randomization Phase, the eligibility of the patients is evaluated. Patients meeting all inclusion/exclusion criteria are randomized to either the compound or placebo in the Double-blind Phase. During the 1-week Titration Period, study medication is up-titrated from 800 mg/day (given b.i.d.) to 2400 mg/day (given b.i.d.). Patients who complete the 1-week Titration Period then enter the 3-week Maintenance Period. Patients who complete the 3-week Maintenance period or prematurely discontinue double-blind treatment then enter the 1-week Follow-up Period. Study medication is completely withdrawn on entry into the Follow-up Period. During the Double-blind Phase, serial efficacy and safety assessments are obtained. […]
The SF-MPQ total pain score at the end of the Maintenance Period is analyzed using an analysis of covariance model adjusting for the effect of treatment on post-treatment scores by using the baseline SF-MPQ total pain score as a covariate. Average weekly pain severity is analyzed using an analysis of covariance model with repeated measures using the treatment week and the mean pain severity rating during the Pre-randomization Phase as covariates. Usage of rescue medication during the Double-blind Phase is analyzed using the Cochran-Mantel-Haenszel test controlling for center. The mean pain severity rating during the Follow-up Period (rebound pain) is analyzed using an analysis of covariance model adjusting for the effect of treatment on the mean pain severity rating of the Follow-up Period with the mean pain severity rating during the Prerandomization Phase as a covariate.

Compound | pain severity ratings relative to placebo
CN(CCO)c1cc2c(=O)n(NS(C)(=O)=O)c(=O)[nH]c2cc1C(F)(F)F [Example 83, N-{6-[(2-Hydroxy-ethyl)-methyl-amino]-2,4-dioxo-7-trifluoromethyl-1,4-dihydro-2H-quinazolin-3-yl}-methanesulfonamide] | decrease pain severity ratings relative to placebo
CS(=O)(=O)Nn1c(=O)[nH]c2cc(C(F)(F)F)c(N3CCOCC3)cc2c1=O [Example 68, N-(6-Morpholin-4-yl-2,4-dioxo-7-trifluoromethyl-1,4-dihydro-2H-quinazolin-3-yl) -methanesulfonamide] | decrease pain severity ratings relative to placebo

— patent US8299085B2, “Quinazoline derivatives” (Novartis AG, priority 2004, dated 2012)
